Measurements published in patent publication US10766864B2, “Morphinan derivatives for the treatment of neuropathic pain” (Nektar Therapeutics, priority 2015, dated 2020).
Read-outs that look alike come from different tables or passages of the source.

How the values were obtained:
mu opioid receptor (MOR) = mu opioid receptor (MOR) (Homo sapiens (Human), UniProt P35372); assay: Competitive radioligand binding at MOR ([3H] Naloxone)
NMDA receptor = assay: Competitive radioligand binding at NMDA receptor ([3H] MK801), rat forebrain membranes; settings: 0.2 nM [3H] MK801, reflects free base activity
hMOR = hMOR (Homo sapiens (Human), UniProt P35372); assay: cAMP accumulation assay (inhibition of forskolin-stimulated cAMP) in CHO-K1 cells stably expressing hMOR; type: cell-based
Description: Mu opioid agonist activity for selected compounds was determined by the inhibition of forskolin-stimulated cAMP accumulation following MOR activation in CHO-K1 cells stably expressing the hMOR. […] IC50 values were calculated from […] analysis of the concentration-response curves using Graph Pad Prizm.

[1] = test system: rat formalin paw model of persistent pain; assay: Automated formalin paw test, oral administration; type: in vivo; settings: at at least one dosage between 10 mg/kg and 300 mg/kg (inclusive), in the presence of 1-aminobenzotriazole
Description: The in vivo efficacy of selected compounds following oral administration was measured using the rat formalin model of persistent pain. Test compounds were administered 30-60 minutes prior to injection of 5% formalin to the hind-paw of rats and paw movements were measured using the automated Nociception Analyzer (ANA Instrument; University of California, San Diego) for 60 minutes post-formalin. In some experiments, rats were pre-treated 16-22 hours priors to the experiment with the cytochrome-P450 inhibitor, 1-aminobenzotriazole (ABT), to assess the activity of compounds in the absence of significant quantities of metabolites. ED50 values (mg/kg) were calculated from non-linear regression analyses of the cumulative number of flinches in Phase II (10-60 mins) versus dose of test compounds.
In the rat formalin paw model of persistent pain, compounds 83, 113, 114 and 115 (described in Examples 83, 113, 114 and 115, respectively) were tested. In each case, the oral efficacy of the compounds was measured in the presence and absence of the cytochrome CYP-450 inhibitor, 1-aminobenzotriazole.

[2] = Phase II clinical study; cited from earlier work

SMILES	IC50 (mu opioid receptor (MOR)) [nM]	IC50 (NMDA receptor) [nM]	IC50 (hMOR) [nM]	oral efficacy in Phase I and Phase II of the rat formalin paw model [1]	reduction of neuropathic pain [2]	side effects [2]	IC50 (mu opioid receptor (MOR); membranes from CHO-K1 cells expressing MOR, 2 nM [3H] Naloxone, reflects free base activity, read-out: MOR IC50) [nM]	IC50 (hMOR; hMOR-expressing CHO-K1 cells, 10 μM forskolin, 60 minute incubation, read-out: MOR cAMP IC50) [nM]
COCCN1CC[C@]23CCCC[C@H]2[C@H]1Cc1ccc(O)cc13 [Compound 113, 3-hydroxy-17-(2-methoxyethyl)morphinan]	0.1 to 10	100 to 1000	0.1 to 10	statistically significant efficacy	–	–	–	–
CN1CC[C@]23CCCC[C@H]2[C@H]1Cc1ccc(N)cc13 [Compound 114, 3-amino-17-morphinan]	100 to 1000	100 to 1000	100 to 1000	statistically significant efficacy	–	–	–	–
CN1CC[C@]23CCCC[C@H]2[C@H]1Cc1ccc(O)cc13 [levorphanol, 17-Methylmorphinan-3-ol]	–	–	–	–	effective in reducing neuropathic pain	severe dose-limiting side effects	–	–
CN1CC[C@]23CCCC[C@H]2[C@H]1Cc1cc2sc(N)nc2cc13 [Compound 115, (4aR,5R,11bR)-14-methyl-2,3,4,4a,5,6-hexahydro-1H-5,11b-(epiminoethano)phenanthro[3,2-d]thiazol-9-amine]	–	0.1 to 100	–	statistically significant efficacy	–	–	10 to 100	10 to 100
COCCOCCN1CC[C@]23CCCC[C@H]2[C@H]1Cc1ccc(Nc2cccnc2)cc13 [Compound 83, 17-[2-(2-methoxyethoxy)ethyl]-N-(pyridin-3-yl)morphinan-3-amine]	100 to 1000	1000 to 10000	–	statistically significant efficacy	–	–	–	–
